# Data from ChEMBL document CHEMBL4387717, “Structure guided drug design to develop kallikrein 5 inhibitors to treat Netherton syndrome” (Bioorg Med Chem Lett, 2019).
# pIC50: −log10 of the molar value.
# What was measured:
# Kallikrein-5 = biological target: T1, Kallikrein-5 (Homo sapiens, UniProt Q9Y337); assay: Inhibition of recombinant 6His-Q-FLAG tagged human KLK5 expressed in baculovirus infected Sf9 insect cells using (Tos-Gly-Pro-Arg)2[R110].2TFA as substrate measured at 30 secs interval for 5 mins by fluorescence intensity assay; settings: for IC50: read-out: pIC50 (converted)
# T1 sequence (Q9Y337 whole entry): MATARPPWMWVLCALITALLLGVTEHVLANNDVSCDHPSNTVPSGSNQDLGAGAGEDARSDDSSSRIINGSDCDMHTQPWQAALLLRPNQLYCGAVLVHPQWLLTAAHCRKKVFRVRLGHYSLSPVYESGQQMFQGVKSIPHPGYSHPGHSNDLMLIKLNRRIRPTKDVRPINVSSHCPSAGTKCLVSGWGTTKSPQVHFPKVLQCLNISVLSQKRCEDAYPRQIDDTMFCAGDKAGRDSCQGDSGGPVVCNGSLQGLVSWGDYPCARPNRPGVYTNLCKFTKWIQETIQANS
# Homo sapiens = species: Homo sapiens; assay: Selectivity index, ratio of compound effect for inhibition of recombinant bovine enterokinase activated N-terminal His-tagged recombinant human KLK1 (19 to 262 residues) expressed in baculovirus infected Sf9 insect cells to compound effect for inhibition of recombinant 6His-Q-FLAG tagged human KLK5 expressed in baculovirus infected insect Sf9 cells
# Kallikrein-1 = Kallikrein-1 (Homo sapiens, UniProt P06870); assay: Inhibition of recombinant bovine enterokinase activated N-terminal His-tagged recombinant human KLK1 (19 to 262 residues) expressed in baculovirus infected Sf9 insect cells using 3',6'-bis(prolylphenylalanylarginylamino)3H-spiro(2-benzofuran-1,9'-xanthen)-3-one;TFA as substrate measured at 30 secs interval for 5 mins by fluorescence intensity assay
# [1] = Half life in pH 6 buffer at 0.05 mg/ml under H2O2-induced oxidative condition over 24 hrs; assay type: physicochemical; settings: buffer with H2O2, pH 6
# [2] = Solubility of the compound in water at 24 hrs; assay type: physicochemical
# [3] = Half life in pH 4 to 8 buffer at 0.05 mg/ml over 24 hrs; assay type: physicochemical
# [4] = Absorption property in methanol assessed as maximum absorption wavelength by UV-spectra analysis; assay type: physicochemical
# [5] = Solubility of the compound in pH 4 Britton-Robinson buffer at 24 hrs; assay type: physicochemical; settings: buffer, pH 4, 24 h
# [6] = Absorption property in methanol assessed as molar extinction co-efficient by UV-spectra analysis; assay type: physicochemical
# [7] = Half life in pH 8 buffer at 0.05 mg/ml under H2O2-induced oxidative condition over 24 hrs; assay type: physicochemical; settings: buffer with H2O2, pH 8
# [8] = Solubility of the compound in pH 6 Britton-Robinson buffer at 24 hrs; assay type: physicochemical; settings: buffer, pH 6, 24 h
# Sequence of Kallikrein-1 (P06870 whole entry, the tested form may be a part): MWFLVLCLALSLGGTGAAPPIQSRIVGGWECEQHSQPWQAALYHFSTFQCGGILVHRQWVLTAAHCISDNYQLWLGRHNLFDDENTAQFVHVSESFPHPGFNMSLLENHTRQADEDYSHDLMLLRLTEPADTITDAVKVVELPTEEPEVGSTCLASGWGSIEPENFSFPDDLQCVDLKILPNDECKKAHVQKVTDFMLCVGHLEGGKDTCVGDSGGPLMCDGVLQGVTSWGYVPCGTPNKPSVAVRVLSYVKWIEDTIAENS
Structure (SMILES),IC50 (Kallikrein-5) [µM],pIC50 (Kallikrein-1),other results
N=C(N)c1ccc(NCc2nc(-c3ccccc3)c[nH]2)cc1OCC(=O)NCC1CC1,0.0398,< 5.20,half-life at 0.05 mg/ml [1]: 26.7 h; solubility at 24 h [2]: 3000 µg/mL; half-life at 0.05 mg/ml [3]: > 1000 h; Activity [4]: > 290 nm; solubility [5]: Soluble; Activity [6]: > 1000 a.u.L/mol.cm; half-life at 0.05 mg/ml [7]: 14 h; solubility [8]: Soluble
N=C(N)c1ccc(NCc2nc3cc(Cl)ccc3[nH]2)cc1,10,5.70,–
N=C(N)c1ccc(NCc2nc(-c3ccccc3)c[nH]2)cc1OCc1ccc(Cl)cc1,0.0631,< 5.30,–
N=C(N)c1ccc(NCc2nc(-c3ccccc3)c[nH]2)cc1OCCC1CC1,0.2,4.30,Selectivity Index (Homo sapiens): 250
N=C(N)c1ccc(NCc2nc(-c3ccccc3)c[nH]2)cc1OCC1CC1,0.794,4.30,Selectivity Index (Homo sapiens): 60
N=C(N)c1ccc(NCc2nc(-c3ccccc3)c[nH]2)cc1OCc1ccccc1,0.0794,4.60,pIC50 (Kallikrein-5; read-out: IC50): > 8.00; Selectivity Index (Homo sapiens): 300
N=C(N)c1ccc(NCc2nc(-c3ccccc3)c[nH]2)cc1OCc1ncccn1,0.0794,4.40,–
N=C(N)c1ccc(NCc2nc(-c3ccccc3)c[nH]2)cc1OCC(N)=O,0.794,< 4.30,–
N=C(N)c1ccc(NCc2nc(-c3ccccc3)c[nH]2)cc1OCc1cccc(Cl)c1,0.0794,< 5.30,–
N=C(N)c1ccc(NCc2nc(-c3ccccc3)c[nH]2)cc1OCCO,3.98,4.10,–
CC(C)COc1cc(NCc2nc(-c3ccccc3)c[nH]2)ccc1C(=N)N,6.31,4.10,–

# Continued, in another order:
IC50 (Kallikrein-5) [µM],pIC50 (Kallikrein-1),Structure (SMILES),other results
0.316,5.20,CCOc1cc(NCc2nc(-c3ccccc3)c[nH]2)ccc1C(=N)N,Selectivity Index (Homo sapiens): 20
0.126,4.70,N=C(N)c1ccc(NCc2nc(-c3ccccc3)c[nH]2)cc1OCc1ccccn1,–
20,4.40,N=C(N)c1ccc(NCc2nc3ccccc3[nH]2)cc1,–
126,3.40,Cn1ccnc1CNc1ccc(C(=N)N)cc1,–
10,5.20,Cc1ccc2[nH]c(CNc3ccc(C(=N)N)cc3)nc2c1,–
6.31,4.60,N=C(N)c1ccc(NCc2nc(-c3ccccc3)c[nH]2)cc1,–
0.0794,4.80,N=C(N)c1ccc(NCc2nc(-c3ccccc3)c[nH]2)cc1OCC(=O)NC1CC1,–
0.1,4.90,N=C(N)c1ccc(NCc2nc(-c3ccccc3)c[nH]2)cc1OCc1ncco1,–
12.6,4.50,COc1ccc2[nH]c(CNc3ccc(C(=N)N)cc3)nc2c1,–
0.0316,< 5.60,N=C(N)c1ccc(NCc2nc(-c3ccccc3)c[nH]2)cc1OCc1ccccc1Cl,–
25.1,4.20,N=C(N)c1ccc(NCc2ncc[nH]2)cc1,–
15.8,5.20,Cn1c(CNc2ccc(C(=N)N)cc2)nc2ccccc21,–
15.8,4.10,CN(C)CCOc1cc(NCc2nc(-c3ccccc3)c[nH]2)ccc1C(=N)N,–
0.251,4.50,CNC(=O)COc1cc(NCc2nc(-c3ccccc3)c[nH]2)ccc1C(=N)N,–
